From patent publication US10106544B2, “1,2-dihydro-3H-pyrrolo[1,2-C]imidazol-3-one derivatives and their use as antibacterial agents” (priority 2014, dated 2018) come the findings set out here.

Molecules are shown by their SMILES. In brackets after ≈: the same amount, converted by molar mass. Where only a bound is given, the exact number is not on record here.

Common to all, as to experiment: Bacterial growth minimal inhibitory concentration (microdilution, cation-adjusted Mueller-Hinton Broth)
Holding throughout (assay type): cell-based

One assay relates to K. pneumoniae A-651. The settings on record: multiply-resistant strain (in particular quinolone-resistant); for MIC: Klebsiella pneumoniae, A651, read-out: MIC for K. Pneumoniae A-651. In short, it runs like this:
(§1)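 Broth microdilution in cation-adjusted Mueller-Hinton Broth per CLSI M7-A7, MIC in mg/L. K. pneumoniae A-651 is multiply resistant, including to quinolones. E. coli ATCC25922 and P. aeruginosa ATCC27853 are quinolone-sensitive.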

The next assay deals with E. coli ATCC25922. To be noted: quinolone-sensitive strain; for MIC: Escherichia coli, ATCC25922, read-out: MIC for E. coli ATCC25922. In short, it runs like this: as §1
In the next assay the test system is P. aeruginosa ATCC27853. To be noted: for MIC: Pseudomonas aeruginosa, ATCC27853, quinolone-sensitive strain, read-out: MIC for P. aeruginosa ATCC27853. The procedure, abridged:
as §1

As for `CC(CCN1Cc2cc(C#Cc3ccc(CO)cc3F)cn2C1=O)(C(=O)NO)S(C)(=O)=O` (racemic) [RE3, (RS)-4-(6-((2-fluoro-4-(hydroxymethyl)phenyl)ethynyl)-3-oxo-1H-pyrrolo[1,2-c]imidazol-2(3H)-yl)-N-hydroxy-2-methyl-2-(methylsulfonyl)butanamide], the minimal inhibitory concentration (MIC) stood at 1 µg/mL (≈ 2.16 µM) in the assay on K. pneumoniae A-651, 0.5 µg/mL (≈ 1.08 µM) in the assay with E. coli ATCC25922 and 4 µg/mL (≈ 8.63 µM) in the assay on P. aeruginosa ATCC27853.
The matching figures for `C[C@@](CCN1Cc2cc(C#Cc3ccc(C4(CO)CC4)cn3)cn2C1=O)(C(=O)NO)S(C)(=O)=O.O=CO` [Example 24, (R)-N-hydroxy-4-(6-((5-(1-(hydroxymethyl)cyclopropyl)pyridin-2-yl)ethynyl)-3-oxo-1H-pyrrolo[1,2-c]imidazol-2(3H)-yl)-2-methyl-2-(methylsulfonyl)butanamide formate]: 32 µg/mL, 8 µg/mL and 8 µg/mL.
For the compound `COC(=O)c1ccc(-c2cc3n(c2)C(=O)N(CC[C@](C)(C(=O)NO)S(C)(=O)=O)C3)c(F)c1` [Example 47, methyl (R)-3-fluoro-4-(2-(4-(hydroxyamino)-3-methyl-3-(methylsulfonyl)-4-oxobutyl)-3-oxo-2,3-dihydro-1H-pyrrolo[1,2-c]imidazol-6-yl)benzoate], the minimal inhibitory concentration (MIC) with K. pneumoniae A-651 was 0.25 µg/mL (≈ 0.535 µM); in the assay with E. coli ATCC25922 it was no more than 0.063 µg/mL; with P. aeruginosa ATCC27853, 8 µg/mL (≈ 17.1 µM).
Take `C[C@@](CCN1Cc2cc(C#Cc3ccc(CNS(C)(=O)=O)cc3)cn2C1=O)(C(=O)NO)S(C)(=O)=O` [Example 82, (R)-N-hydroxy-2-methyl-4-(6-((4-(methylsulfonamidomethyl)phenyl)ethynyl)-3-oxo-1H-pyrrolo[1,2-c]imidazol-2(3H)-yl)-2-(methylsulfonyl)butanamide]: the figures for the MIC in the assay on K. pneumoniae A-651, in the assay on E. coli ATCC25922 and in the assay with P. aeruginosa ATCC27853 were 1 µg/mL (≈ 1.91 µM), 0.5 µg/mL (≈ 0.957 µM) and 1 µg/mL (≈ 1.91 µM), respectively.
As for `C[C@@](CCN1Cc2cc(C#Cc3ccc([C@H](O)CO)cc3)cn2C1=O)(C(=O)NO)S(C)(=O)=O` [Example 18, (R)-4-(6-((4-((S)-1,2-dihydroxyethyl)phenyl)ethynyl)-3-oxo-1H-pyrrolo[1,2-c]imidazol-2(3H)-yl)-N-hydroxy-2-methyl-2-(methylsulfonyl)butanamide], the figures for the MIC in the assay with K. pneumoniae A-651, in the assay with E. coli ATCC25922 and in the assay with P. aeruginosa ATCC27853 were 1 µg/mL (≈ 2.1 µM), 0.5 µg/mL (≈ 1.05 µM) and 1 µg/mL (≈ 2.1 µM), respectively.
Consider `C[C@@](CCN1Cc2cc(C#CC#CC3[C@@H](CO)[C@H]3CO)cn2C1=O)(C(=O)NO)S(C)(=O)=O` (stereo partly drawn) [Example 42, (R)-4-(6-(((2R,3S)-2,3-bis(hydroxymethyl)cyclopropyl)buta-1,3-diyn-1-yl)-3-oxo-1H-pyrrolo[1,2-c]imidazol-2(3H)-yl)-N-hydroxy-2-methyl-2-(methylsulfonyl)butanamide], for which the MIC worked out at 8 µg/mL (≈ 17.3 µM) with K. pneumoniae A-651, 8 µg/mL (≈ 17.3 µM) with E. coli ATCC25922 and 4 µg/mL (≈ 8.63 µM) with P. aeruginosa ATCC27853.
For `C[C@@](CCN1Cc2cc(C#CC#CC3(COC(=O)OCOP(=O)(O)O)CC3)cn2C1=O)(C(=O)NO)S(C)(=O)=O` [Example 75, (R)-(1-((2-(4-(hydroxyamino)-3-methyl-3-(methylsulfonyl)-4-oxobutyl)-3-oxo-2,3-dihydro-1H-pyrrolo[1,2-c]imidazol-6-yl)buta-1,3-diyn-1-yl)cyclopropyl)methyl((phosphonooxy)methyl)carbonate], the “MIC for K. Pneumoniae A-651” value in the assay on K. pneumoniae A-651 was determined as 2 µg/mL. In addition, the “MIC for E. coli ATCC25922” value in the assay with E. coli ATCC25922 worked out at 1 µg/mL. Also, the “MIC for P. aeruginosa ATCC27853” value against P. aeruginosa ATCC27853 (quinolone-sensitive strain) is 2 µg/mL.
For `C[C@@H](O)c1ccc(C#Cc2cc3n(c2)C(=O)N(CC[C@](C)(C(=O)NO)S(C)(=O)=O)C3)cc1` [Example 13, (R)-N-hydroxy-4-(6-((4-((R)-1-hydroxyethyl)phenyl)ethynyl)-3-oxo-1H-pyrrolo[1,2-c]imidazol-2(3H)-yl)-2-methyl-2-(methylsulfonyl)butanamide], the MIC turned out to be 0.25 µg/mL (≈ 0.544 µM) with K. pneumoniae A-651, 0.125 µg/mL (≈ 0.272 µM) in the assay with E. coli ATCC25922 and 0.5 µg/mL (≈ 1.09 µM) with P. aeruginosa ATCC27853.
